Values joined by “and” are separate entries in the source; they are usually repeats but may differ in a detail not shown here. Identical values can stand only once. Toxic doses and inconclusive results are not listed. How the source made its calls: active means survival T/C of 150% or more; inactive means T/C below 125% in these data.
Test system: P388 leukemia ip, CD2F1 mice, survival T/C
Test: NCI In Vivo Anticancer Drug Screen. Data for tumor model P388 Leukemia (intraperitoneal) in CD2F1 (CDF1) mice
Details: endpoint: median survival time, higher = longer survival
How it was run: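 Mice carrying the transplanted tumor received test compound or vehicle. Survival was recorded in each group, and the value is the treated-group measurement divided by that of the vehicle-treated control group.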

[1] = dose: 60.0 mg/kg/injection, schedule: Q01DX005 (ip), vehicle: saline with Tween-80
[2] = dose: 120.0 mg/kg/injection, schedule: Q01DX005 (ip), vehicle: saline with Tween-80
[3] = dose: 240.0 mg/kg/injection, schedule: Q01DX005 (ip), vehicle: saline with Tween-80
[4] = dose: 50.0 mg/kg/injection, schedule: Q01DX009 (ip), vehicle: saline with Tween-80
[5] = dose: 100.0 mg/kg/injection, schedule: Q01DX009 (ip), vehicle: saline with Tween-80
[6] = dose: 200.0 mg/kg/injection, schedule: Q01DX009 (ip), vehicle: saline with Tween-80

Measured: T/C

[Cu+2].[Cu+2].c1ccc2c(c1)-c1nc-2nc2[n-]c(nc3nc(nc4[n-]c(n1)c1ccccc41)-c1ccccc1-3)c1cc3c4nc5nc(nc6[n-]c(nc7nc(nc([n-]4)c3cc21)-c1ccccc1-7)c1ccccc61)-c1ccccc1-5
inactive: [1] 100 % of control | [2] 89 % of control | [3] 95 % of control

COc1cc(CCCNC(C)=O)cc(OC)c1OC
inactive: dose: 25.0 mg/kg/injection, schedule: Q01DX005 (ip), vehicle: water 105 % of control | dose: 50.0 mg/kg/injection, schedule: Q01DX005 (ip), vehicle: water 98 % of control | dose: 100.0 mg/kg/injection, schedule: Q01DX005 (ip), vehicle: water 96 % of control | dose: 200.0 mg/kg/injection, schedule: Q01DX005 (ip), vehicle: water 98 % of control

O=C(CC(=O)CC(O)(C(F)(F)F)C(F)(F)F)CC(O)(C(F)(F)F)C(F)(F)F
inactive: dose: 1.25 mg/kg/injection, schedule: Q04DX003 (ip), vehicle: saline 100 % of control | dose: 2.5 mg/kg/injection, schedule: Q04DX003 (ip), vehicle: saline 95 % of control

CN1C2CCC1C(C(=O)O)C(O)C2 (stereo not given)
inactive: dose: 100.0 mg/kg/injection, schedule: Q04DX002 (ip), vehicle: saline with Tween-80 101 % of control | dose: 200.0 mg/kg/injection, schedule: Q04DX002 (ip), vehicle: saline with Tween-80 96 % of control | dose: 400.0 mg/kg/injection, schedule: Q04DX002 (ip), vehicle: saline with Tween-80 92 % of control

O=C1C(N=Nc2ccc(S(=O)(=O)Nc3ccccn3)cc2)C(=O)N(c2ccc(Cl)cc2)C(=S)N1c1ccc(Cl)cc1
inactive: dose: 50.0 mg/kg/injection, schedule: Q01DX005 (ip), vehicle: saline 105 % of control | dose: 100.0 mg/kg/injection, schedule: Q01DX005 (ip), vehicle: saline 114 % of control | dose: 200.0 mg/kg/injection, schedule: Q01DX005 (ip), vehicle: saline 112 % of control

O=S(=O)(c1ccccc1)C1CC=C(c2ccccc2)CNC1 (stereo not given)
inactive: dose: 50.0 mg/kg/injection, schedule: Q01DX001 (ip), vehicle: Klucel (hydroxypropylcellulose) (HPC) 99 % of control | dose: 100.0 mg/kg/injection, schedule: Q01DX001 (ip), vehicle: Klucel (hydroxypropylcellulose) (HPC) 98 % of control | dose: 200.0 mg/kg/injection, schedule: Q01DX001 (ip), vehicle: Klucel (hydroxypropylcellulose) (HPC) 98 % of control | dose: 400.0 mg/kg/injection, schedule: Q01DX001 (ip), vehicle: Klucel (hydroxypropylcellulose) (HPC) 100 % of control

O=C(Nc1ccc(Cl)c(Cl)c1)/C(Cl)=C1/Sc2ccccc2NC1=O
inactive: [1] 105 % of control | [2] 105 % of control | [3] 105 % of control

C/C(=C/OS(=O)(=O)C(F)(F)F)c1ccccc1
inactive: dose: 50.0 mg/kg/injection, schedule: Q01DX009 (ip), vehicle: olive oil, sesame oil, peanut oil 105 % of control | dose: 100.0 mg/kg/injection, schedule: Q01DX009 (ip), vehicle: olive oil, sesame oil, peanut oil 116 % of control | dose: 200.0 mg/kg/injection, schedule: Q01DX009 (ip), vehicle: olive oil, sesame oil, peanut oil 87 % of control

CCOc1ccc2nc3cc(N=Nc4cc5ccccc5[nH]4)ccc3c(N)c2c1
inactive: dose: 100.0 mg/kg/injection, schedule: Q01DX001 (ip), vehicle: saline with Tween-80 97 % of control | dose: 200.0 mg/kg/injection, schedule: Q01DX001 (ip), vehicle: saline with Tween-80 94 % of control | dose: 400.0 mg/kg/injection, schedule: Q01DX001 (ip), vehicle: saline with Tween-80 103 % of control

CC(C)(C)N=C(CCN1CCN(CCC(=NC(C)(C)C)Nc2c(Cl)cccc2Cl)CC1)Nc1c(Cl)cccc1Cl
inactive: dose: 50.0 mg/kg/injection, schedule: Q01DX009 (ip), vehicle: Klucel (hydroxypropylcellulose) (HPC) 96 % of control | dose: 100.0 mg/kg/injection, schedule: Q01DX009 (ip), vehicle: Klucel (hydroxypropylcellulose) (HPC) 95 % of control | dose: 200.0 mg/kg/injection, schedule: Q01DX009 (ip), vehicle: Klucel (hydroxypropylcellulose) (HPC) 92 % of control

CC(=O)NNC1=NC(C)(C)CC1
inactive: dose: 100.0 mg/kg/injection, schedule: Q01DX001 (ip), vehicle: saline 97 % of control | dose: 200.0 mg/kg/injection, schedule: Q01DX001 (ip), vehicle: saline 102 % of control | dose: 400.0 mg/kg/injection, schedule: Q01DX001 (ip), vehicle: saline 102 % of control

Oc1ccccc1/C=N/C(/N=C/c1ccccc1O)c1ccccc1O
inactive: [4] 100 % of control | [5] 101 % of control | [6] 100 % of control

CC1C2Cc3ccc(O)cc3C1(C)CCN2C (stereo not given)
inactive: [1] 92 % of control | [2] 100 % of control

CCCCCCC[CH2][Sn]([CH2]CCCCCCC)([NH]S(=O)(=O)c1ccc(C)cc1)[NH]S(=O)(=O)c1ccc(C)cc1
inactive: dose: 25.0 mg/kg/injection, schedule: Q04DX003 (ip), vehicle: saline sonified 100 % of control | dose: 50.0 mg/kg/injection, schedule: Q04DX003 (ip), vehicle: saline sonified 122 % of control | dose: 100.0 mg/kg/injection, schedule: Q04DX003 (ip), vehicle: saline sonified 100 % of control

CCOC1=N[C@H]2CCCC[C@H]2N1
inactive: dose: 15.0 mg/kg/injection, schedule: Q01DX005 (ip), vehicle: saline 98 % of control | dose: 30.0 mg/kg/injection, schedule: Q01DX005 (ip), vehicle: saline 96 % of control | dose: 60.0 mg/kg/injection, schedule: Q01DX005 (ip), vehicle: saline 102 % of control and 98 % of control

COc1cc(NC(C)CCCN)c2nc(C)ccc2c1Oc1ccc(F)cc1 (stereo not given)
inactive: dose: 12.5 mg/kg/injection, schedule: Q01DX009 (ip), vehicle: water 109 % of control | dose: 25.0 mg/kg/injection, schedule: Q01DX009 (ip), vehicle: water 92 % of control

CC/C(=N/NS(=O)(=O)c1ccc(C)cc1)c1ccc([N+](=O)[O-])cc1
inactive: dose: 100.0 mg/kg/injection, schedule: Q04DX002 (ip), vehicle: saline 100 % of control | dose: 200.0 mg/kg/injection, schedule: Q04DX002 (ip), vehicle: saline 105 % of control | dose: 400.0 mg/kg/injection, schedule: Q04DX002 (ip), vehicle: saline 100 % of control

CN1CCCN(C)C1c1cc([N+](=O)[O-])ccc1O
inactive: dose: 6.25 mg/kg/injection, schedule: Q01DX009 (ip), vehicle: saline sonified 100 % of control | dose: 12.5 mg/kg/injection, schedule: Q01DX009 (ip), vehicle: saline sonified 100 % of control | dose: 25.0 mg/kg/injection, schedule: Q01DX009 (ip), vehicle: saline sonified 100 % of control

CCCOc1cc2c(cc1C(C)c1ccc(OC)cc1)OCO2 (stereo not given)
inactive: dose: 25.0 mg/kg/injection, schedule: Q01DX005 (ip), vehicle: distilled water + alcohol 106 % of control | dose: 400.0 mg/kg/injection, schedule: Q01DX005 (ip), vehicle: distilled water + alcohol 112 % of control and 114 % of control

C=CCc1cc(OC)c(OCC=O)c(OC)c1
inactive: dose: 100.0 mg/kg/injection, schedule: Q04DX002 (ip), vehicle: Klucel (hydroxypropylcellulose) (HPC) 99 % of control | dose: 200.0 mg/kg/injection, schedule: Q04DX002 (ip), vehicle: Klucel (hydroxypropylcellulose) (HPC) 96 % of control

O=C(/C(=C\c1ccccc1)c1ccccc1)c1ccccc1
inactive: [4] 92 % of control | [5] 88 % of control | [6] 93 % of control | dose: 400.0 mg/kg/injection, schedule: Q01DX009 (ip), vehicle: saline with Tween-80 95 % of control

COC(=O)C12CC3(C)OC1(C)OC(=O)C2(Cc1ccccc1)N3C(C)=O (stereo not given)
inactive: [1] 104 % of control | [2] 104 % of control | [3] 97 % of control

O=C(Nc1nc2ccc([N+](=O)[O-])cc2s1)C(F)(F)C(F)(F)F
inactive: dose: 6.25 mg/kg/injection, schedule: Q01DX009 (ip), vehicle: saline 112 % of control | dose: 12.5 mg/kg/injection, schedule: Q01DX009 (ip), vehicle: saline 112 % of control | dose: 25.0 mg/kg/injection, schedule: Q01DX009 (ip), vehicle: saline 106 % of control

O=C1NC(=O)[C@@]2(CC[C@@H](O)C2)c2ccncc21
inactive: dose: 1.5 mg/kg/injection, schedule: Q01DX009 (ip), vehicle: DMSO 89 % of control | dose: 3.0 mg/kg/injection, schedule: Q01DX009 (ip), vehicle: DMSO 93 % of control | dose: 6.0 mg/kg/injection, schedule: Q01DX009 (ip), vehicle: DMSO 101 % of control | dose: 12.0 mg/kg/injection, schedule: Q01DX009 (ip), vehicle: DMSO 95 % of control | dose: 25.0 mg/kg/injection, schedule: Q01DX005 (ip), vehicle: DMSO 91 % of control | dose: 50.0 mg/kg/injection, schedule: Q01DX005 (ip), vehicle: DMSO 96 % of control | dose: 100.0 mg/kg/injection, schedule: Q01DX005 (ip), vehicle: DMSO 93 % of control | dose: 200.0 mg/kg/injection, schedule: Q01DX005 (ip), vehicle: DMSO 92 % of control
